Data on 14 compounds can be found in patent publication US8802595B2, “Use of prolines for improving growth and/or yield” (Los Alamos National Security, LLC, priority 2005, dated 2014).

Holding throughout (type): in vivo
In one experiment the test system is white clover. As to the kind of experiment: Herbicidal killing rate on white clover (Example 8). Conditions: recommended field strength application, 25 plants each treatment. The procedure: (§1) Two dicotyledenous plants, white clover and morning glory were treated with the manufacturer's recommended field strength application and the killing rate was measured. Growing morning glory and clover plants (25 each treatment) treated with either 2,4-D alone or a mixture of 2,4-D and pyroglutamate were killed with the same efficacy, 100%.

Experiment [1] deals with oats. As to the kind of experiment: Mitigation by pyroglutamate of 2,4-D-induced stress in oats (Example 7). Conditions: oat seedlings in greenhouse, 2,4-D at ¼ field strength, pyroglutamate 13.5 g/L, with surfactant/wetting agent. The protocol: A test was conducted to measure mitigation by pyroglutamate of 2,4-D-induced stress in a monocotyledonous crop plant, oats.
Growing oat plants were treated with a mixture of pyroglutamate (isomer ratio 85:15 of L:D) and 2,4-D and their growth monitored. Oat seedlings, growing vigorously in a greenhouse, were treated with a mixture of 2,4-D and pyroglutamate (13.5 g/L). The 2,4-D was included in the mixture at ¼ of the recommended field strength; a surfactant/wetting agent (Gly Surf P) was also used. The treatment solution was applied with a backpack R&D sprayer using 2 passes over the plants to assure that all plants received treatment solution. It was estimated that this simulated a ½ strength field dose. These plants were compared with plants treated with the herbicide and surfactant/wetting agent as well as with controls treated only with the surfactant/wetting agent (controls).

The test system of a further experiment is morning glory. As to the kind of experiment: Herbicidal killing rate on morning glory (Example 8). Conditions: recommended field strength application, 25 plants each treatment. The protocol:
as §1

Experiment [2] relates to oats. As to the kind of experiment: Oat tillers with flag leaves emerged at day 28 post-treatment (Example 2). The source says:
The oats from example 1 were also monitored for their number of tillers with flag leaves emerged at day 28 post-treatment. This parameter relates to potential for grain yield. Table 2 contains the resultant tillers with flag leaves at 28 days for the same series of isomer mixtures.

For experiment [3], the system named is Commercial field grown table grapes. The experiment is described as follows: Yield of field grown table grapes sprayed twice (Example 6). Conditions: 25 gm per acre. The source says:
Commercial field grown table grapes were at sprayed twice the first time at 6-12″ of new vine growth and the second spraying 2 months later. The pyroglutamate composition (isomer ratio 85:15 of L:D) was applied at a rate of 25 gm per acre.

The subject of experiment [4] is Commercial field grown wheat. The experiment is described as follows: Grain yield of field grown wheat sprayed at flag leaf stage (Example 5). Conditions: wheat sprayed one time at flag leaf stage, harvested at maturity. An excerpt:
Commercial field grown wheat was sprayed one time with the pyroglutamate composition (isomer ratio 85:15 of L:D) at the flag leaf stage using the same treatment solution as described in our other plant treatments. Grain was harvested at maturity; the treated plots yielded 0.65 T/hectare more (7% increase) grain (seed) than the untreated plots.

As for `O=C(O)COc1ccc(Cl)cc1Cl` [2,4-D, 2,4-dichlorophenoxy acetic acid], the killing efficacy in the experiment on white clover and with morning glory was 100% each time. For the same compound, the “average plant fresh weight” value in the experiment with oats [1] stood at 2.29 g.
Take `O=C(O)[C@@H]1CCC(O)=N1` [Series 1, pyroglutamate]: the “Tillers with flag leaves” value in the experiment on oats [2] (listed as 1) is recorded as 20.
In the case of `O=C(O)[C@@H]1CCC(O)=N1` [Series 2, pyroglutamate, reference compound], the “Tillers with flag leaves” value with oats [2] (listed as 2) was 24.
Turning to `O=C(O)[C@@H]1CCC(O)=N1` [Series 3, pyroglutamate], the “Tillers with flag leaves” value in the experiment with oats [2] (listed as 3) turned out to be 17.
For the compound `O=C(O)[C@@H]1CCC(O)=N1` [Series 4, pyroglutamate], in the experiment with oats [2] (listed as 4), the “Tillers with flag leaves” value came out at 34.
As to `O=C(O)[C@@H]1CCC(O)=N1` [Series 5, pyroglutamate], in the experiment on oats [2] (listed as 5), the “Tillers with flag leaves” value was determined as 33.
`O=C(O)[C@@H]1CCC(O)=N1` [Series 6, pyroglutamate]: the “Tillers with flag leaves” value with oats [2] (listed as 6) is listed as 37.
With `O=C(O)[C@@H]1CCC(O)=N1` [Series 7, pyroglutamate], the “Tillers with flag leaves” value with oats [2] (listed as 7) was determined as 29.
On to `O=C(O)[C@@H]1CCC(O)=N1` [Series 8, pyroglutamate], for which, in the experiment on oats [2] (listed as 8), the “Tillers with flag leaves” value was 31.
With `O=C(O)[C@@H]1CCC(O)=N1` [Series 9, pyroglutamate], the “Tillers with flag leaves” value with oats [2] (listed as 9) is 23.
Take `O=C(O)[C@@H]1CCC(O)=N1` [Series 10, pyroglutamate]: in the experiment with oats [2] (listed as 10), the “Tillers with flag leaves” value was found to be 22.
Consider `O=C(O)[C@@H]1CCC(O)=N1` [Series 11, pyroglutamate], for which the “Tillers with flag leaves” value in the experiment with oats [2] (listed as 11) is 26.
As to `O=C(O)[C@@H]1CCC(O)=N1` [Series 12, pyroglutamate], the “Tillers with flag leaves” value in the experiment with oats [2] (listed as 12) came to 24.
`O=C(O)[C@@H]1CCC(O)=N1` [pyroglutamate composition (isomer ratio 85:15 of L:D), pyroglutamate]: in experiment [3], the “greater yield of harvestable grapes than untreated plots” value is listed as 13.5% and the “yield of harvestable grapes” value is 1045 standard boxes. In addition, in experiment [4], the “grain (seed) yield more than untreated plots” value is on record as 0.65 T/hectare and the “increase in grain yield versus untreated plots” value came to 7%.
